Earlier results as cited in patent publication EP0188214A2, “Novel growth hormone-releasing peptides and method of treating mammals therewith” (The Administrators of The Tulane University Educational Fund, priority 1985, dated 1986).
Ends that are not written are not given here.

Tested on: rat anterior pituitary
Settings: rat anterior pituitary in vitro and in vivo; literature

## hpGRF: growth hormone-releasing factors (GRF) of human pancreatic islet tumor origin (YADAIFTNSYRKVLGQLSARKLLQDIMSRQQGESNQERGARARL; ends and bridges not checked; UniProt P01286 32-75, looked up)
  growth hormone(GH)-releasing activity: possess growh hormone(GH)-releasing activity

## hp GRF(1-29)-NH2: synthetic amidated fragment of the natural hp GRF (YADAIFTNSYRKVLGQLSARKLLQDIMSR-NH2; UniProt P01286 32-60, looked up, fragment)
  growth hormone(GH)-releasing activity: full intrinsic biological activity
